A short description of series [1]: Metabolic stability in pooled human liver microsomes. It counts as in vitro ADME. To be noted: human, pooled human liver microsomes, pooled human liver microsomes 0.5 mg/mL, 1 μM test compound, 37° C., * rows = mean of two runs. In outline:
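Pooled human liver microsomes (0.5 mg/mL in PBS) preincubated ±1 mM NADPH at 37° C; test compound added at 10 min to 1 μM final. Samples at 0, 5, 15 and 60 min quenched in acetonitrile, parent quantified by LC-MS/MS against a standard curve (terfenadine internal standard). Initial metabolic rate calculated with and without NADPH.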
(In general: Liver microsomes are vesicles of endoplasmic reticulum, rich in cytochrome P450 enzymes.)

Series [2] concerns the target T1, CYP2C9 (Homo sapiens, UniProt P11712). Kind of series: CYP inhibition of C21 found during development. To be noted: statement in background. It counts as in vitro ADME.
Series [3] has as its target T2, CYP3A4 (Homo sapiens, UniProt P08684). The series can be described thus: CYP inhibition of C21 found during development. It counts as in vitro ADME. To be noted: statement in background.
Series [4] is described as follows: Metabolic hydrolysis of C21 found during development. It counts as in vitro ADME. The settings on record: statement in background.
The subject of a further series is CYP3A4&5. The series can be described thus: in vitro. The settings on record: human, human liver microsomes, probe testosterone.
For series [5], the target named is T3, human recombinant AT2 receptor (Homo sapiens, UniProt P50052).
T3 construct: purchased Eurofins ITEM26 (protocol number)
T3 sequence (P50052 1-363): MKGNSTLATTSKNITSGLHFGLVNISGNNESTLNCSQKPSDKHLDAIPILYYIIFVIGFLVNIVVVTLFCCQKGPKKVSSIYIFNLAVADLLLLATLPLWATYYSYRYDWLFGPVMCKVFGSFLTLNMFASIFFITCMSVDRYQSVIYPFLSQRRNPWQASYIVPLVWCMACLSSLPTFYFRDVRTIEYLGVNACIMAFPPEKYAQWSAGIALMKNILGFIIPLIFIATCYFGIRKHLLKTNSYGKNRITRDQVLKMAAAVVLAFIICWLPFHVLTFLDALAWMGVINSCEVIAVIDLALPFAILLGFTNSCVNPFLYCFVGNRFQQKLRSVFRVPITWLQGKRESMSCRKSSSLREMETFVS
The series can be described thus: Binding to AT2 receptor, radiometric scintillation assay (Eurofins ITEM26). The settings on record: ligand 125I CGP 42112A, * rows = mean of runs.

Series [6] has as its target T4, human recombinant AT1 receptor (Homo sapiens, UniProt P30556).
T4 construct: purchased Eurofins ITEM24 (protocol number)
T4 sequence (P30556 1-359): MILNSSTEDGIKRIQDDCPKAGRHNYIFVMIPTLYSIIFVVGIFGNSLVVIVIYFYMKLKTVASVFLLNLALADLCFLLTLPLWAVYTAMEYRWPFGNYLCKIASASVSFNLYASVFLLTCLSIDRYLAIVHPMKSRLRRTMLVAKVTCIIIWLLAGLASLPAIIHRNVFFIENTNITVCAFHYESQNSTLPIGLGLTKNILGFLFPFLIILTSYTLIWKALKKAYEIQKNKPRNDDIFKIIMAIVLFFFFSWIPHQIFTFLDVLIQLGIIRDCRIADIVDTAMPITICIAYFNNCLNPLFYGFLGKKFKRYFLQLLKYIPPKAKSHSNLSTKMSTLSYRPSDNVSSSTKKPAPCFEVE
The series can be described thus: Binding to AT1 receptor, radiometric scintillation assay (Eurofins ITEM24). To be noted: test compounds at 1 and 10 μM, ligand 125I(sar1,Ile8)-AT-II; * rows = mean of runs.

Another series deals with T5, CYP1A2 (Homo sapiens, UniProt P05177).
T5 construct: isoform-specific substrates incubated with human liver microsomes; tissue Eurofins ITEMG232 (protocol number); host or cells: human liver microsomes
T5 sequence (P05177 whole entry, canonical isoform): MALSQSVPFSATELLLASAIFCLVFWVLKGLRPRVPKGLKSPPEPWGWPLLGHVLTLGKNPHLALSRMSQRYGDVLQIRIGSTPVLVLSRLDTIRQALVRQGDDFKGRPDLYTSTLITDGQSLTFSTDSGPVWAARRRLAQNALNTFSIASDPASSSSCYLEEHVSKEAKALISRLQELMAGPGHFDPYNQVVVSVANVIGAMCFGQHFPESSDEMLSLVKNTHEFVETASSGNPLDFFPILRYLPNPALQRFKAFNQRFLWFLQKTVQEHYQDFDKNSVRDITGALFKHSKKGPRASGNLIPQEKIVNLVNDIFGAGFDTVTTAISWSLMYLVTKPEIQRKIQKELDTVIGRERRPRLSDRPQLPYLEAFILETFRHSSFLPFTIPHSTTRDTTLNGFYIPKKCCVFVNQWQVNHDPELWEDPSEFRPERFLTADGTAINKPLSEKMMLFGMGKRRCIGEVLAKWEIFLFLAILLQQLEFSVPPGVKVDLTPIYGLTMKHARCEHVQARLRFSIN
The series can be described thus: in vitro. In kind it is in vitro ADME. The settings on record: human, microsomes, human liver microsomes, substrate phenacetin, read-out: CYP1A2 Inh %.

The target of another series is T6, CYP2B6 (Homo sapiens, UniProt P20813).
T6 construct: isoform-specific substrates incubated with human liver microsomes; tissue Eurofins ITEMG232 (protocol number); host or cells: human liver microsomes
T6 sequence (P20813 1-491): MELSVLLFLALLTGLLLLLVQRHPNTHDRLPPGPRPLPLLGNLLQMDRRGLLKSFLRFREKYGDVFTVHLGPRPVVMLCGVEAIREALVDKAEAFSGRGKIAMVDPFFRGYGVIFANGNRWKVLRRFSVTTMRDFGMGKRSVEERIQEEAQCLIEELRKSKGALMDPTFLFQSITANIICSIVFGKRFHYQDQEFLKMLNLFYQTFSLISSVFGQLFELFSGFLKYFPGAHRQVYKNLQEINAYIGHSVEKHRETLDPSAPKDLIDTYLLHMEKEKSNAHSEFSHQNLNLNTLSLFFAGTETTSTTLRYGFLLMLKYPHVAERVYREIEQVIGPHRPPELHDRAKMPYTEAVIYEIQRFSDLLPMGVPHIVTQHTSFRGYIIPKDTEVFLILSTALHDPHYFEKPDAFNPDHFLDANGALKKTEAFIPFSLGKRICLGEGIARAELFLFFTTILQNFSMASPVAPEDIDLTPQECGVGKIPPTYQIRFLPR
The series can be described thus: CYP inhibition in human liver microsomes (Eurofins ITEMG232). It counts as in vitro ADME. To be noted: probe bupropion, substrate bupropion, read-out: CYP2B6 Inh %.

Another series addresses T7, CYP2C19 (Homo sapiens, UniProt P33261).
T7 construct: isoform-specific substrates incubated with human liver microsomes; tissue Eurofins ITEMG232 (protocol number); host or cells: human liver microsomes
The series is described as above. In kind it is in vitro ADME. The settings on record: human, probe omeprazole, substrate omeprazole, read-out: CYP2C19 Inh %.

The next series has as its target T8, CYP2C8 (Homo sapiens, UniProt P10632).
T8 construct: isoform-specific substrates incubated with human liver microsomes; tissue Eurofins ITEMG232 (protocol number); host or cells: human liver microsomes
T8 sequence (P10632 1-490): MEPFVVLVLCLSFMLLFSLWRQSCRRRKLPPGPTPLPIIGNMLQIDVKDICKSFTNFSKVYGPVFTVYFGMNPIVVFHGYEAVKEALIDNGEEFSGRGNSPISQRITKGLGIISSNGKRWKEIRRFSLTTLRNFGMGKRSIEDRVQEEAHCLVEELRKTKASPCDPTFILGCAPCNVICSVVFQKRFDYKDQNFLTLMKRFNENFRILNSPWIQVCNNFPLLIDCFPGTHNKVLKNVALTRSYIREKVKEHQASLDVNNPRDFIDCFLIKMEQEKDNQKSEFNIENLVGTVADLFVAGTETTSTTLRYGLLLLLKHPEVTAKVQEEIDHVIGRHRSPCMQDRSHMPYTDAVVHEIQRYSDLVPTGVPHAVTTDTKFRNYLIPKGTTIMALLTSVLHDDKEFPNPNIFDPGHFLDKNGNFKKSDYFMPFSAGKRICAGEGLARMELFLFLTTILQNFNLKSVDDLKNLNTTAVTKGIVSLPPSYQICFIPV
Described as above. In kind it is in vitro ADME. The settings on record: human, probe paclitaxel and amodiaquine, substrate paclitaxel and amodiaquine, read-out: CYP2C8 Inh %.

Another series has as its target T9, CYP2D6 (Homo sapiens, UniProt P10635).
T9 construct: isoform-specific substrates incubated with human liver microsomes; tissue Eurofins ITEMG232 (protocol number); host or cells: human liver microsomes
The description is as above. It counts as in vitro ADME. To be noted: probe dextromethorphan, substrate dextromethorphan, read-out: CYP2D6 Inh %.

The target in series [7] is T1, CYP2C9. Described as above. It counts as in vitro ADME. The arrangement: isoform-specific substrates incubated with human liver microsomes; tissue Eurofins ITEMG232 (protocol number); host or cells: human liver microsomes. The settings on record: human, probe diclofenac, substrate diclofenac, read-out: CYP2C9 Inh %.
Series [8] has as its target T2, CYP3A4. The series can be described thus: CYP inhibition in human liver microsomes (Eurofins ITEMG232), midazolam substrate. In kind it is in vitro ADME. The arrangement: isoform-specific substrates incubated with human liver microsomes; tissue Eurofins ITEMG232 (protocol number); host or cells: human liver microsomes. To be noted: human, probe midazolam, read-out: CYP3A4 midazolam Inh %.

[9] abbreviates: without NADPH, read-out: T1/2, no NaDPH.

Where two headings read alike, the source gives them in different places.

T1 sequence (P11712 whole entry): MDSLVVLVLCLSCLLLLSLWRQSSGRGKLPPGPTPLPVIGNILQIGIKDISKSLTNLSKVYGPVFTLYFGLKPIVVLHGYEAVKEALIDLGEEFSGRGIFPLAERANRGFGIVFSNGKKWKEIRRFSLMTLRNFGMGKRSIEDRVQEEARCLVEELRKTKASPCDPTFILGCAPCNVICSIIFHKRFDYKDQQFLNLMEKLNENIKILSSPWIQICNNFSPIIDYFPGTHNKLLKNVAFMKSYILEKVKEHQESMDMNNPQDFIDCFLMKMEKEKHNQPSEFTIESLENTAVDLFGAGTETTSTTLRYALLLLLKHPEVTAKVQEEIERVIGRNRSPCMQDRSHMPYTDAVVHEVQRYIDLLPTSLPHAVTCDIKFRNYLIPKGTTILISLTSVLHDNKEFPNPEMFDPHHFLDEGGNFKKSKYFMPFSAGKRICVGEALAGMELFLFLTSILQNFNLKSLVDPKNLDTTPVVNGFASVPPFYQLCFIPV
T2 sequence (P08684 whole entry): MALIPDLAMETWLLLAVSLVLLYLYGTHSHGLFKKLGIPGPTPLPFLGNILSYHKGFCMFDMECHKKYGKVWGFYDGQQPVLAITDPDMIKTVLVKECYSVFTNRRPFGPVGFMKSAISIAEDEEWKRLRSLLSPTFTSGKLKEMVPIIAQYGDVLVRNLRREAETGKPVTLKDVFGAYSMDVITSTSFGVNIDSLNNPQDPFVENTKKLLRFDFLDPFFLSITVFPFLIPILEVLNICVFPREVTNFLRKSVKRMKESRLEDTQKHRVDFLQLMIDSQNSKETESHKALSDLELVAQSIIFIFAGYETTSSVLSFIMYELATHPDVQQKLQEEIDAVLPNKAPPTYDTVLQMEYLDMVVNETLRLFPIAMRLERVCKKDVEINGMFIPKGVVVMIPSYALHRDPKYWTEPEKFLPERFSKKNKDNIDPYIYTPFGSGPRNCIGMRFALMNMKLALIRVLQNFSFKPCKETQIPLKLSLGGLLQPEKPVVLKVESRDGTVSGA
T9 sequence (P10635 whole entry, canonical isoform): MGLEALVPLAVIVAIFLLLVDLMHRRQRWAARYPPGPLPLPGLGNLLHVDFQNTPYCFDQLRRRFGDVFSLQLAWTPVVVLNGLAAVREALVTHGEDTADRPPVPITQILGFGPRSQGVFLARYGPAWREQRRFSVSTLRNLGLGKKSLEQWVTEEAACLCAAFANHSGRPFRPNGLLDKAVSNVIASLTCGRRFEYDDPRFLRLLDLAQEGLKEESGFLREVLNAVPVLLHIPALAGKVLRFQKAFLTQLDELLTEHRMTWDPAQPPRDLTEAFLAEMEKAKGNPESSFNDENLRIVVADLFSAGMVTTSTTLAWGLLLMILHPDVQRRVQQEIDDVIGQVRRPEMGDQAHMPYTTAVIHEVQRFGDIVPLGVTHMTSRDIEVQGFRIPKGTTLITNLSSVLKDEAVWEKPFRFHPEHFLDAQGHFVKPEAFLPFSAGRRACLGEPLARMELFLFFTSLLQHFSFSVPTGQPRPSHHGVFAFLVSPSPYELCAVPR
T7 sequence (P33261 whole entry, canonical isoform): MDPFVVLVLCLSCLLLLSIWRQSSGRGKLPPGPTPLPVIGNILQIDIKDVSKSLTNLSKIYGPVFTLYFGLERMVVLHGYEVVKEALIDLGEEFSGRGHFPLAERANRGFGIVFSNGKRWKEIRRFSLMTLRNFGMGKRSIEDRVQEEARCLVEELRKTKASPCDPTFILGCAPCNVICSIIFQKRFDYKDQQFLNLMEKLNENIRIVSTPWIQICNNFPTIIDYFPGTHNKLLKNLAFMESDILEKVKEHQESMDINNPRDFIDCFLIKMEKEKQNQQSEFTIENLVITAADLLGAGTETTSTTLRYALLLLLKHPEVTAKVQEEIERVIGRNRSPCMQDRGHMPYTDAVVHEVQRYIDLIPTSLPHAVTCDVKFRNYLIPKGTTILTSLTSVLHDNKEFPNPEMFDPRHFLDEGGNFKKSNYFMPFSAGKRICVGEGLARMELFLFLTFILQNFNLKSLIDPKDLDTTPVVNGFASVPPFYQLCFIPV
Procedure for CYP1A2: The following substrates were used; CYP1A phenacetin, CYP2B36 bupropion, CYP2C8 paclitaxel and amodiaquine, CYP2C9 diclofenac, CYP2C19 omeprazole, CYP2D6 dextromethorphan, CYP3A midazolam and testosterone.
At the end of the incubation, the formation of metabolite was monitored by HPLC-MS/MS as the peak area response.

Consider `CCCCOC(=O)NS(=O)(=O)c1sc(CC(C)C)cc1-c1ccc(Cn2ccnc2)cc1` [Example C21, N-butyloxycarbonyl-3-(4-imidazol-1-ylmethylphenyl)-5-isobutylthiophene-2-sulfon-amide], for which the half-life at 1 μM in [1] (setting [9]) was 0.5 h. Further, the “inhibition of CYP 2C9” value on CYP2C9 [2] is given as “potent inhibitor”. The “inhibition of CYP 3A4” value at CYP3A4 [3] is “potent inhibitor”. For the same compound, the metabolic hydrolysis entry in series [4] is “rapidly hydrolysed to an inactive sulfonamide metabolite”. Also, the inhibition at 10 µM in the series with CYP3A4&5 stood at 94%.

In the case of `CC(C)Cc1ccc(S(=O)(=O)Nc2ncccn2)c(-c2ccc(Cn3ccnc3)c(F)c2)c1` [Example 30, 4′-((1H-Imidazol-1-yl)methyl)-3′-fluoro-5-isobutyl-N-(pyrimidin-2-yl)-[1,1′-biphenyl]-2-sulfonamide], the half-life at 1 μM in series [1] (with 1 mM NADPH, read-out: T1/2, + NaDPH) is 1 h; in series [1] (setting [9]), greater than 1 h. The Ki (commonly the dissociation constant of the complex between target and ligand, obtained from inhibition or displacement) in series [5] (seven-point dose-response curve) is 0.5 nM. Besides, the IC50 (in general, the concentration that gives 50% inhibition) came to 1.01 nM in series [5] (test compounds at 1, 10, 100 and 1000 nM, read-out: AT2 GraFit IC50); 125 nM in series [6]. For the same compound, the inhibition at 10 µM at CYP1A2 was 60.2%; at CYP2B6, 38.4%; on CYP2C19 it was 95.7%; at CYP2C8, 62.4%; on CYP2D6, 50.9%; in the series with CYP3A4&5 it was 92.2%. In addition, the figures for the inhibition at 10 µM at CYP2C9 [7] and at CYP3A4 [8] were 98% and 94%, respectively.

(Values after patent US12441718B2, “Selective angiotensin II compounds” (VICORE PHARMA AB, priority 2021, dated 2025).)
